Assays:
OC43 human coronavirus [1] = assay: Direct contact (contact inhibition) antiviral test, TCID50; conditions: Betacoronavirus 1, OC43, MRC5, in Homo sapiens, 0.5 h, read-out: reduction of OC43 infectivity
OC43 human coronavirus [2] = assay: Post-infection test, MRC-5 cells, TCID50; assay type: cell-based, human coronavirus OC43 (MRC-5 human cells as host); conditions: 10 min exposure; for inhibition at 50 µM: read-out: titer reduction, post-infection
Procedure: Then, 100 μl of either EC16 formulations or Remdesivir solutions of various concentrations were applied onto the cells for 10 min before being replaced by serum-free EMEM. The TCID50 values were determined after incubation for 4-7 days.

OC43 human coronavirus [3] = assay: Pre-infection test, MRC-5 cells, TCID50; assay type: cell-based, human coronavirus OC43 (MRC-5 human cells as host); conditions: MRC5, 10 min; 50 μM EC16m, 10 min incubation before virus; read-out: reduction in viral infectivity, pre-infection
Procedure: EC16m nasal formulations were incubated with MRC-5 cells in 96 well plates for 10 min, and then removed. A series dilution of OC43 in serum-free EMEM was added to the cells and incubated for 1 h. The viral dilutions were then replaced with serum-free EMEM, and TCID50 infection rate was determined after 4-7 days of incubation.

[4] = Cytotoxicity of F18m in normal saline, MTT assay; assay type: cell-based; conditions: human, hnepc; EC16m in saline formulation, 60 min exposure; read-out: concentration not toxic to HNEpC
Procedure: The F18m glycerol stock was diluted 10× with normal saline to 1.4 mM of EC16m. A series dilution of this nanoformulation in Airway Growth Medium was applied to a monolayer of Human […] Primary Epithelial Cells (HNPEC, PromoCell) and incubated for 1 h before medium change and overnight incubation, followed by straining with an MTT assay.

SARS-CoV-2 = conditions: one-hour incubation; cited from earlier work
[5] = in vivo, cited from earlier work

**Q.** For CCCCCCCCCCCCCCCC(=O)Oc1c(O)cc(C2Oc3cc(O)cc(O)c3CC2OC(=O)c2cc(O)c(O)c(O)c2)cc1O (centres unmarked) [EC16m, Epigallocatechin-3-Gallate-mono-palmitate], which inhibition at 50 µM (OC43 human coronavirus [1]) is on record?
**A.** 99.9%

**Q.** What about the “inhibition of viral replication, post-infection” value (OC43 human coronavirus [2]; 12.5 μM EC16m) of the same molecule?
**A.** 99%

**Q.** And the inhibition at 12.5 µM (OC43 human coronavirus [2]; MRC5, 10 min, 12.5 μM EC16m, read-out: inhibition of viral replication, post-infection)?
**A.** > 99%

**Q.** And the inhibition at 50 µM (OC43 human coronavirus [2]; MRC5, 10 min, 50 μM)?
**A.** 99.8%

**Q.** And the inhibition at 50 µM (OC43 human coronavirus [3])?
**A.** 98.5%

**Q.** And the MNTC at 1 h [4]?
**A.** < 280 µM

**Q.** Which EC90 (SARS-CoV-2) does the source give for O=C(O[C@@H]1Cc2c(O)cc(O)cc2O[C@@H]1c1cc(O)c(O)c(O)c1)c1cc(O)c(O)c(O)c1 [EGCG, epigallocatechin-3-gallate] here?
**A.** 69 µM

**Q.** And the bioavailability [5]?
**A.** very low

**Q.** What about the Cmax ([5]; read-out: serum maximum concentration) of the same molecule?
**A.** 570 nM

**Q.** Which inhibition at 50 µM (OC43 human coronavirus [2]; MRC5, 10 min, 50 μM) does the source give for CCC(CC)COC(=O)[C@H](C)N[P@](=O)(OC[C@H]1O[C@@](C#N)(c2ccc3c(N)ncnn23)[C@H](O)[C@@H]1O)Oc1ccccc1 [remdesivir, reference compound] here?
**A.** 99.8%

**Q.** What about the log reduction at 50 µM (OC43 human coronavirus [2]; MRC5, 10 min, 50 μM, n=4, read-out: log10 titer reduction, post-infection) of the same molecule?
**A.** 2.69 ± 0.24

Reference: US20260335274A1, “COMPOSITIONS AND METHODS OF MINIMIZING LONG COVID” (priority 2022, published 2026)
